Source: ChEMBL document CHEMBL1156840, “Design, synthesis and biological evaluation of new 2,3-diarylquinoline derivatives as selective cyclooxygenase-2 inhibitors” (Bioorg Med Chem, 2010)

Molecular target: T1, Prostaglandin G/H synthase 1 (Ovis aries, UniProt P05979)
T1 sequence (P05979 whole entry): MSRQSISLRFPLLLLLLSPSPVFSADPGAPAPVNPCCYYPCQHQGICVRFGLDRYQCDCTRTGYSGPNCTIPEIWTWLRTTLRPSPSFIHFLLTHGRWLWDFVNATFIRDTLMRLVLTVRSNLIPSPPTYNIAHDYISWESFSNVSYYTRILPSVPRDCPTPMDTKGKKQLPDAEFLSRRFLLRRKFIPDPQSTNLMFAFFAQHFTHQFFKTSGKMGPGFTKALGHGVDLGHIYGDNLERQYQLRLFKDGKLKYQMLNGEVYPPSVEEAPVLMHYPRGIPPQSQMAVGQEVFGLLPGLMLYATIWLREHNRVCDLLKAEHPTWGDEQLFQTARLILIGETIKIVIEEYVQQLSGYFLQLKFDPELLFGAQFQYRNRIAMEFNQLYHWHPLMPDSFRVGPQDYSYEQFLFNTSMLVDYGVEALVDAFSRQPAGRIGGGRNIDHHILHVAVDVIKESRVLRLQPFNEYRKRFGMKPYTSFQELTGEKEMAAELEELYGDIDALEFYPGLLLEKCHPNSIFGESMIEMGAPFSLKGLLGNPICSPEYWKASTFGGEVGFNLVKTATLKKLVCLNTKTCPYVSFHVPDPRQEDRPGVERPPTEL
Description: Inhibition of ovine COX1 by enzyme chemiluminescent enzyme assay

Row | SMILES | IC50 [µM]
1 | CS(=O)(=O)c1ccc(-c2nc3ccccc3c(C(=O)O)c2-c2ccccc2)cc1 | 48.1
2 | Cc1c(-c2ccccc2)c(-c2ccc(S(C)(=O)=O)cc2)nc2ccccc12 | 13.3
3 | CS(=O)(=O)c1ccc(-c2nc3ccccc3cc2-c2ccccc2)cc1 | 33.5
4 | CS(=O)(=O)c1ccc(-c2nc3ccccc3c(N)c2-c2ccccc2)cc1 | 14.4
5 | CS(=O)(=O)c1ccc(-c2nc3ccccc3c(-c3ccccc3)c2-c2ccccc2)cc1 | 10.2
